In patent US9952300B2, “Dynamic contrast enhanced MRI method and agents for the assessment of the macromolecular transport within pathologic tissues” (BRACCO IMAGING S.P.A., priority 2012, dated 2018):
“And” between values parts separate entries of the source, which are not always exact repeats. Equal values may be shown once.

How the values were obtained:
[1] = biological target: T1, Human Serum Albumin (Homo sapiens, UniProt P02768); experiment: Binding (%) of the paramagnetic complex to human serum proteins/albumin by centrifugal ultrafiltration; type: in vitro ADME; set-up: purchased Nycomed Phama; host or cells: Seronorm Human, reconstituted (lyophilised) human serum
Source text: Preferred albumin binding agents according to the invention include paramagnetic contrast agents having molecular weight lower than 5,000 Da, preferably lower that 3,000 Da and, more preferably, comprised from 800 to 3,000 Da, that further display an in-vivo non-covalent protein binding with the Human Serum Albumin (or HSA, or albumin, as herein used interchangeably) equal to or higher that 85%, preferably higher than 90% and, more preferably, higher than 95%, expressed in terms of % of the agent amount that is non-covalently bound to serum albumin, measured by centrifugal ultrafiltration (Centrifree®) from a 0.5 mM solution of the agent in Seronorm® incubated at 37° C., according to the procedure disclosed, for instance, in Invest.Radiol. 2006, 41: 279-291; Whitlam J B, Brown K F. Ultrafiltration in serum protein binding determinations. J.Pharm.Sci. 1981; 70:146-150, and in the Example 2 of the Experimental section.
The binding (%) has been determined by with the method of the centrifugal ultrafiltration as described in: Whitlam J B, Brown K F Ultrafiltration in serum protein binding determination. J. Pharm Sci. 1981; 70:146-150; Bowers W F, Fulton S, thompson J. Ultrafiltration vs equilibrium dialysis for determination of free fraction. […]
The albumin serum protein binding was analysed in a human serum solution (Seronorm Human, Nycomed Phama) where each complex was added at a concentration of Gd(III) ion of 0.5 mM. […] The percent of Gd(III)-complex bound (% B) was determined by equation: % B=[(Ct−Cf)/Ct]*100 where Ct is the total amount of Gd(III) in the incubated solution and Cf is the free Gd(III) complex found in the permeate solution. The average bound fraction was assessed from ultrafiltration experiments carried out in triplicate. […]
The above solution (0.300 mL) was added to 15 mL of reconstituted human serum. […] The protein free permeate solution (0.4 mL) was collected and Cf was measured by ICP-MS analysis. […]
From obtained Cf values the percent of bound Gd-complex was determined by application of the following equation % B=[(Ct−Cf)/Ct]*100 where Ct is 0.460 mM (S.D.: 0.015). […]

[2] = biological target: T1, Human Serum Albumin; conditions: literature; cited from earlier work
[3] = system: A431 human epidermoid carcinoma xenografts; experiment: Fluorescence microscopy of Cy5-CTX distribution in A431 xenografts after PTX or vehicle (Example 5); type: in vivo, NCR athymic nude mice
Method: Cy5-CTX: The fluorescently labeled monoclonal Antibody (mAb) was prepared in house, by conjugating the monoclonal antibody (3.51 mg/mL in citrate-TEA buffer, obtained by buffer exchange from the commercial glycine solution of the mAb) with the commercially available fluorescent cyanine Cy5-NHS ester by using typical and well experienced procedures known in the art. Molar ratio dye/mAb in the conjugated product=2. Albumin-Fluoresceinisothiocyanate: (Albumin-FITC, by Sigma-Aldrich, 10 mg/mL solution). Optical Imaging Protocol […]
Forty-five histological images were acquired, corresponding to approximately 3 sections per tumor. Each image consisted in a stack of two channels corresponding to the fluorescence signal obtained from the dye Cyanine 5 (Cy5) and Fluorescein isothiocyanate (FITC).
The spatial distribution of the Cy5-CTX staining was analyzed calculating for each pixel its distance from the nearest vessel wall using FITC-Alb images (Distance Map FIG. 9 panel c). In the corresponding Cy5-CTX image, the Cy5-CTX signal was then expressed as a function of the pixel distance from the vessel wall (CTX decay curve). […]
Fluorescent CTX decay curves were measured for each tumor section acquired by fluorescence microscopy over distances ranging from 0 to about 700 μm from the nearest vessel wall. […]

T1 sequence (P02768 25-609): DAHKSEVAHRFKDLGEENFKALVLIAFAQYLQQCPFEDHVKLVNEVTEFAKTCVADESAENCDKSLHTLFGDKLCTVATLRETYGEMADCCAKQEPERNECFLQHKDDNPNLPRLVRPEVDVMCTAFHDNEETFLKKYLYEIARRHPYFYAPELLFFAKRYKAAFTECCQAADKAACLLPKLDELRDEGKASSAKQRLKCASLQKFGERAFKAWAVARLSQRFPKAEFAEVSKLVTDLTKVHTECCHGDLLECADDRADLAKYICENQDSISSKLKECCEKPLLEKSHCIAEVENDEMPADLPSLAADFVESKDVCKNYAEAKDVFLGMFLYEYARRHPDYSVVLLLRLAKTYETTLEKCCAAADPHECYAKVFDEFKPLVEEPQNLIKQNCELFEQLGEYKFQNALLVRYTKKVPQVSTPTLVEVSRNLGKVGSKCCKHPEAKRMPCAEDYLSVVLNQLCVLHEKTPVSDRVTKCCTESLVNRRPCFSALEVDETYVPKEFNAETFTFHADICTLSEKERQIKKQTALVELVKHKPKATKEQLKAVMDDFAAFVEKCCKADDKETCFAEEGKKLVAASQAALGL

SMILES	Average Gd(III), Cf (free Gd(III) complex in the permeate solution) ([1]; 0.5 mM Gd(III) complex in Seronorm human serum, 10 min at 37° C., 30 KDa MWCO ultrafiltration, per permeate A, B, C, trisodium salt)	% B, Average ([1]; 0.5 mM complex in human serum, 37° C., average of triplicate) [%]	% B (percent of Gd(III)-complex bound to serum proteins) ([1]; 0.5 mM complex in human serum, 37° C., single ultrafiltrations, trisodium salt)	non-covalent binding with Human Serum Albumin [2]	Cy5-CTX fluorescence (fAUC), treated versus untreated tumors ([3]; between 400 and about 700 μm from the nearest vessel wall)	Cy5-CTX fAUC, treated versus untreated tumors ([3]; whole tested range from 0 to 700 μm)
C[C@H](CCC(=O)[O-])[C@H]1CC[C@H]2[C@@H]3CC[C@@H]4C[C@@H](NC(=O)CC[C@@H](C(=O)[O-])N(CCN(CC(=O)[O-])CC(=O)[O-])CCN(CC(=O)[O-])CC(=O)[O-])CC[C@]4(C)[C@H]3C[C@H](O)[C@]12C.[Gd+3].[Na+].[Na+].[Na+] [B22956/1, Gadocoletic acid trisodium salt]	0.016 mM and 0.011 mM and 0.012 mM	97.19	96.52% and 97.65% and 97.39%	about 95%	–	–
CC(=O)O[C@H]1C(=O)[C@@]2(C)[C@H]([C@H](OC(=O)c3ccccc3)[C@]3(O)C[C@H](OC(=O)[C@H](O)[C@@H](NC(=O)c4ccccc4)c4ccccc4)C(C)=C1C3(C)C)[C@]1(OC(C)=O)CO[C@@H]1C[C@@H]2O [PTX, Paclitaxel]	–	–	–	–	higher fluorescence	No differences
